According to patent US10544090B2, “Anthraquinone analogs and methods of making and using thereof” (Georgia State University Research Foundation, Inc., priority 2012, dated 2020):

Key:
KB = assay: Cytotoxicity against cancer cell lines (Example 5), KB; type: cell-based; settings: Tables 5-12
Method: (§1) All of the compounds synthesized were tested against a number of cancer cell lines: Hela KB, Cos7, Molt4, K562, EU1, and T98G. The cancer cell lines vary from leukemia cell lines (Molt4, EU, K562) to solid-state tumor cell lines (Hela, KB, Cos7) and the drug resistant cell lines (T98G).

MOLT4 [1] = assay: Cytotoxicity against cancer cell lines (Example 5), Molt4; type: cell-based
Method: as §1

T98G = assay: Cytotoxicity against cancer cell lines (Example 5), T98G; type: cell-based; settings: Tables 5-12; drug resistant cell line
Method: as §1

HeLa [2] = assay: Cytotoxicity against cancer cell lines (Example 5), Hela; type: cell-based; settings: Tables 5-12
Method: as §1

Cos7 = assay: Cytotoxicity against cancer cell lines (Example 5), Cos7; type: cell-based; settings: Tables 5-12
Method: as §1

K562 = assay: Cytotoxicity against cancer cell lines (Example 5), K562; type: cell-based; settings: Tables 5-12
Method: as §1

EU1 = assay: Cytotoxicity against cancer cell lines (Example 5), EU1; type: cell-based; settings: Tables 5-12
Method: as §1

HeLa [3] = assay: MTT cytotoxicity evaluation of series 1 and 2 rhein analogues, HeLa (Tables 3, 4); type: cell-based; settings: Homo sapiens, HeLa; MTT; Tables 3 and 4; read-out: IC50 (μM) against HeLa
MOLT4 [4] = assay: MTT cytotoxicity evaluation of series 1 and 2 rhein analogues, MOLT4 (Tables 3, 4); settings: Homo sapiens, MOLT-4, read-out: IC50 (μM) against MOLT4
[5] = Tables 5-12, read-out: IC50 Molt4

SMILES	IC50 (KB) [µM]	IC50 (MOLT4 [1]; [5]) [µM]	IC50 (T98G) [µM]	IC50 (HeLa [2]) [µM]	IC50 (Cos7) [µM]	IC50 (K562) [µM]	IC50 (MOLT4 [1]; cell line not given, matches Table 8 Molt4, read-out: IC50 value) [µM]	IC50 (EU1) [µM]	IC50 (HeLa [3]) [µM]	IC50 (MOLT4 [4]) [µM]
CN1CCN(CC(=O)Nc2cc(O)c3c(c2)C(=O)c2cccc(O)c2C3=O)CC1 [BW-AQ-114]	10.2 ± 2.26	0.284 ± 0.021	> 12.5	3.9 ± 1	2 ± 0.6	0.84 ± 0.36	–	–	–	–
COC(=O)c1cc(OCCN=[N+]=[N-])c2c(c1)C(=O)c1cccc(OCCN=[N+]=[N-])c1C2=O [BW-AQ-120]	> 50	> 1.6	> 12.5	> 12.5	~50	> 6.25	–	–	–	–
[N-]=[N+]=NCCOc1cccc2c1C(=O)c1c(OCCN=[N+]=[N-])cc(C(=O)O)cc1C2=O [BW-AQ-121]	> 50	> 1.6	> 12.5	> 12.5	> 50	> 6.25	–	–	–	–
[N-]=[N+]=NCCOc1cccc2c1C(=O)c1c(OCCN=[N+]=[N-])cc(C(=O)N=[N+]=[N-])cc1C2=O [BW-AQ-122]	> 50	> 1.6	> 12.5	> 12.5	> 50	> 6.25	–	–	–	–
[N-]=[N+]=NCCOc1cccc2c1C(=O)c1c(OCCN=[N+]=[N-])cc(N)cc1C2=O [BW-AQ-123]	20.5	> 1.6	> 12.5	> 50	–	> 6.25	–	–	–	–
O=C(CBr)Nc1cc(O)c2c(c1)C(=O)c1cccc(OCc3ccccc3)c1C2=O [BW-AQ-127]	5.4 ± 2.5	–	13.8 ± 2.5	5.6 ± 0.63	1.7 ± 0.43	1.95 ± 0.58	0.028	0.084 ± 0.058	–	–
COc1cccc2c1C(=O)c1c(OC)cc(NC(=O)C(F)(F)F)cc1C2=O [BW-AQ-132]	> 50	> 1.6	> 12.5	> 50	> 50	> 6.25	–	–	–	–
COc1cccc2c1C(=O)c1c(OC)cc(NC(C)=O)cc1C2=O [BW-AQ-134]	> 50	> 1.6	> 50	> 50	> 50	> 6.25	–	–	–	–
COc1cccc2c1C(=O)c1c(OC)cc(NC(=O)CN=[N+]=[N-])cc1C2=O [BW-AQ-137]	23.6	> 1.6	> 50	24.6	> 50	> 6.25	–	–	–	–
COc1cccc2c1C(=O)c1c(OC)cc(NS(=O)(=O)CCl)cc1C2=O [BW-AQ-138]	> 50	> 1.6	> 50	> 50	> 50	> 6.25	–	–	–	–
O=C1c2cccc(O)c2C(=O)c2c(O)cc(-c3cccs3)cc21 [BW-AQ-140]	3.4 ± 1.02	0.209 ± 0.044	13.8 ± 4	3.1 ± 0.68	2.2 ± 0.41	3.2 ± 1.5	–	0.69 ± 0.152	–	–
COc1cccc2c1C(=O)c1c(OC)cc(N)cc1C2=O [BW-AQ-145]	> 50	> 25	> 50	> 50	> 50	> 25	–	> 25	–	–
CCCOC(=O)c1cc(OCCC)c2c(c1)C(=O)c1cccc(OCCC)c1C2=O [BW-AQ-147]	> 50	> 25	> 50	> 50	–	> 25	–	> 25	–	–
O=C(OCc1ccccc1)c1cc(OCc2ccccc2)c2c(c1)C(=O)c1cccc(OCc3ccccc3)c1C2=O [BW-AQ-148]	> 50	> 25	> 50	18.6	> 50	> 25	–	> 25	–	–
[N-]=[N+]=NC(=O)c1cc(OCc2ccccc2)c2c(c1)C(=O)c1cccc(OCc3ccccc3)c1C2=O [BW-AQ-149]	> 50	> 25	> 50	> 50	> 50	> 25	–	> 25	–	–
Nc1cc(OCc2ccccc2)c2c(c1)C(=O)c1cccc(OCc3ccccc3)c1C2=O [BW-AQ-150]	> 50	> 25	> 50	~50	17	> 25	–	> 25	–	–
C=CCOC(=O)c1cc(OCC=C)c2c(c1)C(=O)c1cccc(OCC=C)c1C2=O [BW-AQ-152]	22.5	> 25	29.3	27.6	12.5	> 25	–	> 25	–	–
C=CCOc1cccc2c1C(=O)c1c(OCC=C)cc(C(=O)O)cc1C2=O [BW-AQ-153]	> 50	> 25	> 50	> 50	> 50	> 25	–	> 25	–	–
C=CCOc1cccc2c1C(=O)c1c(OCC=C)cc(C(=O)N=[N+]=[N-])cc1C2=O [BW-AQ-154]	> 50	6.66	> 50	24.3	19.4	19.5	–	3	–	–

SMILES	IC50 (KB) [µM]	IC50 (MOLT4 [1]; [5]) [µM]	IC50 (T98G) [µM]	IC50 (HeLa [2]) [µM]	IC50 (Cos7) [µM]	IC50 (K562) [µM]	IC50 (MOLT4 [1]; cell line not given, matches Table 8 Molt4, read-out: IC50 value) [µM]	IC50 (EU1) [µM]	IC50 (HeLa [3]) [µM]	IC50 (MOLT4 [4]) [µM]
C=CCOc1cccc2c1C(=O)c1c(OCC=C)cc(N)cc1C2=O [BW-AQ-155]	12.5	> 25	> 50	~50	> 50	> 25	–	> 25	–	–
CCOc1cccc2c1C(=O)c1c(OCC)cc(NC(=O)CO)cc1C2=O [BW-AQ-157]	9.5	0.42	15.4	6.35	5	1.8	–	0.358	–	–
C=CC(=O)Nc1cc(OCC)c2c(c1)C(=O)c1cccc(OCC)c1C2=O [BW-AQ-158]	20.3	< 3.2	21	19.7	8.42	10.7	–	6	–	–
C=CCOc1cccc2c1C(=O)c1c(OCC=C)cc(NC(=O)CCl)cc1C2=O [BW-AQ-161]	> 20	> 10	> 50	> 20	> 20	> 10	–	> 10	–	–
C=CCOc1cccc2c1C(=O)c1c(OCC=C)cc(NC(=O)CI)cc1C2=O [BW-AQ-163]	14.7	> 25	> 50	> 50	> 50	> 25	–	> 25	–	–
C=CCOc1cccc2c1C(=O)c1c(OCC=C)cc(NC(=O)CN=[N+]=[N-])cc1C2=O [BW-AQ-164]	> 50	> 25	> 50	> 50	> 50	> 25	–	> 25	–	–
CCOc1cccc2c1C(=O)c1c(OCC)cc(NC(=O)CN)cc1C2=O [BW-AQ-166]	18.8	> 25	37.3	11	–	> 25	–	> 25	–	–
CCOc1cccc2c1C(=O)c1c(OCC)cc(NC(=O)CNC)cc1C2=O [BW-AQ-167]	1.54	21.5	11.2	0.753	5.51	2.05	–	13.6	–	–
COCC(=O)Nc1cc(OC)c2c(c1)C(=O)c1cccc(OC)c1C2=O [BW-AQ-170]	> 50	> 25	> 50	> 50	–	> 25	–	> 25	–	–
COc1cccc2c1C(=O)c1c(OC)cc(NC(=O)C(F)F)cc1C2=O [BW-AQ-171]	50	> 25	> 50	> 50	–	> 25	–	> 25	–	–
COc1cccc2c1C(=O)c1c(OC)cc(NC(=O)CC#N)cc1C2=O [BW-AQ-172]	< 6.25	> 25	> 50	> 50	–	> 25	–	> 25	–	–
COc1cccc2c1C(=O)c1c(OC)cc(NC(=O)CCCl)cc1C2=O [BW-AQ-173]	50	> 25	> 50	50	–	> 25	–	25	–	–
COc1cccc2c1C(=O)c1c(OC)cc(NC(=O)CCCCl)cc1C2=O [BW-AQ-174]	> 50	> 25	> 50	> 50	–	> 25	–	> 25	–	–
COc1cccc2c1C(=O)c1c(OC)cc(NC(=O)COCc3ccccc3)cc1C2=O [BW-AQ-175]	33.6	25	> 50	> 50	–	> 25	–	20.5	–	–
CCOc1cccc2c1C(=O)c1c(OCC)cc(NC(=O)CCCCl)cc1C2=O [BW-AQ-179]	< 6.25	15.3	50	6.25	–	10.7	–	17.6	–	–
CCOc1cccc2c1C(=O)c1c(OCC)cc(NC(=O)COCc3ccccc3)cc1C2=O [BW-AQ-182]	> 50	16.8	> 50	47.3	–	> 25	–	16.8	–	–
CCN(CC)CC(=O)Nc1cc(O)c2c(c1)C(=O)c1cccc(O)c1C2=O [Compound 9a, 1,8-Dihydroxy-3-(2′-diethylamino-acetamido)-anthraquinone]	–	–	–	–	–	–	–	–	6.1	3
CN1CCN(CC(=O)Nc2cc(O)c3c(c2)C(=O)c2cccc(O)c2C3=O)CC1 [Compound 9b, 1,8-Dihydroxy-3-(2′-(4″-methylpiperazin-1″-yl)-acetamido)-anthraquinone]	–	–	–	–	–	–	–	–	5.8	3.1
